Test [1] in a line: Trypanosoma cruzi growth suppression in host cells – NIH3T3 host cells, beta-gal luminescence, confirmation (AID 2044).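 Note: intracellular parasites grown in NIH/3T3 mouse fibroblasts as host cells; luminescent beta-galactosidase reporter signal from transgenic T. cruzi replicating inside host cells; inhibitors lower the luminescence signal.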 The format is functional, cell-based.
A short description of test [2]: NIH3T3 cell viability loss – ATP luminescence, mouse fibroblasts, counter-screen, dose response (AID 2010).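 Note: cells exposed to compound for about 90 hours before reading.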 The format is functional, cell-based.
The nature of test [3]: A cytotoxicity screen of small molecule inhibitors of the PhoP region in Salmonella typhi identified in the primary screen. [Related pubchem assays: 1850, 1864, 1985 ]. The format is functional.
For another test, the target named is T1, Aspartyl aminopeptidase (Plasmodium falciparum 3D7, UniProt Q8I2J3).
T1 sequence (Q8I2J3 whole entry): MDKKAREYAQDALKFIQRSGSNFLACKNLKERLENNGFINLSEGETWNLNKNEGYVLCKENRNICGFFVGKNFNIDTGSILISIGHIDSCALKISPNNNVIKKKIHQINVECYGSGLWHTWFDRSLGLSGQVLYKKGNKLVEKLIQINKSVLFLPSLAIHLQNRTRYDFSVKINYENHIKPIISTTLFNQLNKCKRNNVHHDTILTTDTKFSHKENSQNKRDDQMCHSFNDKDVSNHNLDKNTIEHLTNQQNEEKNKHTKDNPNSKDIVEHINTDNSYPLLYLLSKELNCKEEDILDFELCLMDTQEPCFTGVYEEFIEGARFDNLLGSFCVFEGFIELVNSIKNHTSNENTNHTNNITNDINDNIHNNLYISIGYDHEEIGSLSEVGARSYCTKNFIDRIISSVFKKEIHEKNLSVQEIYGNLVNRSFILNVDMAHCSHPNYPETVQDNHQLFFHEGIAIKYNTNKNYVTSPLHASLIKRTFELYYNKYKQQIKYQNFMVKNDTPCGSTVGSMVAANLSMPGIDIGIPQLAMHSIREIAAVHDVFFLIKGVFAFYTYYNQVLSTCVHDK
Nature of the test: Counterscreen for inhibitors of M1 and M17 aminopeptidases: QFRET-based biochemical high throughput dose response assay for inhibitors of the Plasmodium falciparum M18 Aspartyl Aminopeptidase (PFM18AAP). [Related PubChem assays: 1619 (Screening assay (M17LAP inhibitors).), 1445 (Screening assay (M1AAP inhibitors).)].

A further test deals with Procathepsin L (Homo sapiens, UniProt P07711). Nature of the test: CTSL1 protease inhibition – biochemical, QFRET, 1536-well, counter-screen for M1/M17 aminopeptidase inhibitor project, dose response (AID 2214). A general note: A counterscreen serves to expose hits that act by an unwanted route or on another target.
Procathepsin L, sequence (P07711 whole entry): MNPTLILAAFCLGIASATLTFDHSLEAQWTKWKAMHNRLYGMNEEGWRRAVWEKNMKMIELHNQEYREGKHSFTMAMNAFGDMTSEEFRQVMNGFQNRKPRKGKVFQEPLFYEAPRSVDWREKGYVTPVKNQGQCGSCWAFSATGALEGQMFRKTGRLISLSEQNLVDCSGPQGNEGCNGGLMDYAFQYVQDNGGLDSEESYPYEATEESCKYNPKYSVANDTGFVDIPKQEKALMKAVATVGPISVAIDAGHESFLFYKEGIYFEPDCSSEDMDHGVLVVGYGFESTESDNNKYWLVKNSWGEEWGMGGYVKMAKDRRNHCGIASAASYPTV
In a further test the target is T2, Leucine aminopeptidase (Plasmodium falciparum 3D7, UniProt Q8IL11).
T2 sequence (Q8IL11 whole entry): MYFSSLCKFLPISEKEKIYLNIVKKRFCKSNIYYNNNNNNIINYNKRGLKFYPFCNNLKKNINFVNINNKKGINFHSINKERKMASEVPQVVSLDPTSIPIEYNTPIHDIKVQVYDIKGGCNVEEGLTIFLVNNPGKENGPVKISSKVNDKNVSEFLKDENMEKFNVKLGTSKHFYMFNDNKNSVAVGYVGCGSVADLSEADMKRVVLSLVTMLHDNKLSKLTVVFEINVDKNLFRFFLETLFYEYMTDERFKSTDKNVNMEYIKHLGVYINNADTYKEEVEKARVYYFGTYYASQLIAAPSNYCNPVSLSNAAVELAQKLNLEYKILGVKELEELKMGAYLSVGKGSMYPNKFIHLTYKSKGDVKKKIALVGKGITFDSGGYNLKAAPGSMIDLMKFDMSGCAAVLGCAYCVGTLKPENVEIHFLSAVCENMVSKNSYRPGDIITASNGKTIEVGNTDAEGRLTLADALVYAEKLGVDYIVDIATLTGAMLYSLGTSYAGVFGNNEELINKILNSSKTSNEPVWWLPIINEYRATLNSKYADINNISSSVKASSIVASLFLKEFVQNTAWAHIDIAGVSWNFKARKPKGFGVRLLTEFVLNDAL
The experiment in a line: P. falciparum M17LAP inhibitors, primary screen, biochemical, fluorogenic H-Leu-NHMec substrate, 1536-well (AID 1619). It is filed as functional.

The target of test [4] is T3, Mannose-6-phosphate isomerase (Homo sapiens, UniProt P34949).
T3 sequence (P34949 whole entry): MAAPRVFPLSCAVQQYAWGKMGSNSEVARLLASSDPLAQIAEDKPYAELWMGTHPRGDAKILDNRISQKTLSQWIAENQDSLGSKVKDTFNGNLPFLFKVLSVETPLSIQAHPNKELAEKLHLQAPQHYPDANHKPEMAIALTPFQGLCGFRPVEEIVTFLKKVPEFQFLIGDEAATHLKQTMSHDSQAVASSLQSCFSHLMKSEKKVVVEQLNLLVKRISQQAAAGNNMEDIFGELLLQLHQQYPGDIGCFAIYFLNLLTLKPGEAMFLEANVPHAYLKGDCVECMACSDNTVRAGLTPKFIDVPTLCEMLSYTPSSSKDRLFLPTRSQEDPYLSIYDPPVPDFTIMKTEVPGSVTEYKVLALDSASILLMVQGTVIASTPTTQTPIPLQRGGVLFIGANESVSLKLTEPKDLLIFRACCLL
The experiment in a line: MPI enzyme activity inhibition – biochemical, fluorescence intensity, coupled assay, primary screen (AID 1209).

The target of the next test is Large T antigen (Simian virus 40, UniProt P03070). It is filed as functional, Betapolyomavirus macacae.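 Note: Confirmatory-stage PubChem screen for compounds that inhibit SV40 T antigen.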
Large T antigen, sequence (P03070 whole entry): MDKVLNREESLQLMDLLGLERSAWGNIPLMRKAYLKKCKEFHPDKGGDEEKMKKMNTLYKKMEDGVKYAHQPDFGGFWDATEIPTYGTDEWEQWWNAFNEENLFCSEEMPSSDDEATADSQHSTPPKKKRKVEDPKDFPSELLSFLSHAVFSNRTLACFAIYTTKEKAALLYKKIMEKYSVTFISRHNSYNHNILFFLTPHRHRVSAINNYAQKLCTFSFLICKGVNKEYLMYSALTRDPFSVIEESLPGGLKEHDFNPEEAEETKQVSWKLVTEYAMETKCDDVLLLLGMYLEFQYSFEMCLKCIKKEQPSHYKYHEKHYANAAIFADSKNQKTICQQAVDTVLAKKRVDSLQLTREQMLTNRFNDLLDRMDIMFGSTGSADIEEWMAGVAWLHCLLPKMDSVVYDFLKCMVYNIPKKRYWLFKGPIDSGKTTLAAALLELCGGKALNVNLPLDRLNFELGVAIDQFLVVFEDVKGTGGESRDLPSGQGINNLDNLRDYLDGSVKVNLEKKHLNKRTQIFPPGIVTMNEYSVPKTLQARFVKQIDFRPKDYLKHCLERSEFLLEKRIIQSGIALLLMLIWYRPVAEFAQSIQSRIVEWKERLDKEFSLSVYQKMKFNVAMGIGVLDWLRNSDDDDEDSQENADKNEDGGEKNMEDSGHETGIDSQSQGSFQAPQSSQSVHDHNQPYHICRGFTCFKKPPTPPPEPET
In a further test the target is T4, Estrogen receptor (Homo sapiens, UniProt P03372).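 Note: potency for inhibiting coactivator peptide recruitment to the receptor.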
T4 sequence (P03372 whole entry): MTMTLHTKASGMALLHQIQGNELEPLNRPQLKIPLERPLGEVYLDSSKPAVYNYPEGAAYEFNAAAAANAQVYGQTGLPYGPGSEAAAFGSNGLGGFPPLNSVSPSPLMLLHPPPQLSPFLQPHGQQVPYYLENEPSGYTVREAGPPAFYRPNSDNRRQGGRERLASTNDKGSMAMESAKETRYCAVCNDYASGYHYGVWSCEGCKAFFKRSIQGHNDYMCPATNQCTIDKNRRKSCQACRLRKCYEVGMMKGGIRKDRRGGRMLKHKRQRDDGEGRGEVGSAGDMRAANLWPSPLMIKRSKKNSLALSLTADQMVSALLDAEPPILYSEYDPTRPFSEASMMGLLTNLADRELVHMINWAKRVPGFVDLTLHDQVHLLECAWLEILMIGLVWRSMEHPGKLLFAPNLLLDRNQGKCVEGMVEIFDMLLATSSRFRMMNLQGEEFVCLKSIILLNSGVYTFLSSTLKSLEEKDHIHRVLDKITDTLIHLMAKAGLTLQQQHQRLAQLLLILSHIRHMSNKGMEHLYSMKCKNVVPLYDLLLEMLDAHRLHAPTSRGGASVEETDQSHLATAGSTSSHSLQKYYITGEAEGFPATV

In test [5] the target is Glyceraldehyde-3-phosphate dehydrogenase (Homo sapiens, UniProt P04406).
Glyceraldehyde-3-phosphate dehydrogenase, sequence (P04406 whole entry): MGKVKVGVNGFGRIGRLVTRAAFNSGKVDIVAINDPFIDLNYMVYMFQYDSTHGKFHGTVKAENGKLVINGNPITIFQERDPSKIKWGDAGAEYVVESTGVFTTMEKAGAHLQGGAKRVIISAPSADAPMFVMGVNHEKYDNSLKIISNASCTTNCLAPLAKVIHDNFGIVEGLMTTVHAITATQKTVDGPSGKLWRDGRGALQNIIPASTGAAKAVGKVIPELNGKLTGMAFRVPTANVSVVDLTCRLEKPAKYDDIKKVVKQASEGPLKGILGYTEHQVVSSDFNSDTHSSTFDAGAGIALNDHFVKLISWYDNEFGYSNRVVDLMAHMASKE
The target of test [6] is T5, Dual specificity protein phosphatase 6 (Rattus norvegicus, UniProt Q64346).
T5 sequence (Q64346 whole entry): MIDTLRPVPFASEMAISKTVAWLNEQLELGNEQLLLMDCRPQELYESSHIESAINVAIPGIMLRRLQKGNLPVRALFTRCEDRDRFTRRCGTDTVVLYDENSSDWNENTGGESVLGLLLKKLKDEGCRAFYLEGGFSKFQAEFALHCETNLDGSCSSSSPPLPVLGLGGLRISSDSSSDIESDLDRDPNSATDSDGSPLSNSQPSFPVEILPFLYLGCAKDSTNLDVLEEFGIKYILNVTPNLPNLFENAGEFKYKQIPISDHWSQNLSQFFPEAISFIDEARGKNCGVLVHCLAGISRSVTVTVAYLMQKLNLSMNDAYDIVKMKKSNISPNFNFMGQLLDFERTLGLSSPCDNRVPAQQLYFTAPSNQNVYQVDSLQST
It is filed as functional.

Test [7] deals with T5, Dual specificity protein phosphatase 6.
Test [8] addresses T6, Tyrosine-protein phosphatase non-receptor type 7 (Homo sapiens, UniProt P35236).
T6 sequence (P35236 whole entry): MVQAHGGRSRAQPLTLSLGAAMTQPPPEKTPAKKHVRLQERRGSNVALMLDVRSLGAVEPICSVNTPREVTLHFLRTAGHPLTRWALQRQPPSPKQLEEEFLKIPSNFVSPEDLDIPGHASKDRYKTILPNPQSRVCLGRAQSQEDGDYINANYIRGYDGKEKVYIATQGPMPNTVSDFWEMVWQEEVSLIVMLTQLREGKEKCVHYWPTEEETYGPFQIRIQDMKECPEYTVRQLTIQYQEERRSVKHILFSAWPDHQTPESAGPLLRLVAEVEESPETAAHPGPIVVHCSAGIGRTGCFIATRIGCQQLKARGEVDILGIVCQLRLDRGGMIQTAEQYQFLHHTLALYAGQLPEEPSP
It is filed as functional.

A further test addresses T7, X-box-binding protein 1 (Homo sapiens, UniProt P17861).
T7 sequence (P17861 whole entry): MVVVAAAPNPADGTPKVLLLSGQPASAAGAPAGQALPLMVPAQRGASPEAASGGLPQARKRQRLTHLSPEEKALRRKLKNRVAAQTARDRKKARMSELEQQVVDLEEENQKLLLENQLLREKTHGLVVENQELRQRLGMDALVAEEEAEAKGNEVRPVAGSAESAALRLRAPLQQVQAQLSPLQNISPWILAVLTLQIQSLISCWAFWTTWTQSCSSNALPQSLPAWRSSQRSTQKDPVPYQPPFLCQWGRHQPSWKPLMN
The format is functional, Cricetulus griseus.

In test [9] the test system is Streptococcus sp. 'group A'. The experiment in a line: Streptococcus pyogenes SK(-)GAS viability under kanamycin – luminescence, BacTiterGlo, confirmation, counter-screen for streptokinase expression inhibitor project, dose response (AID 1900). It is filed as functional, organism-based.
A further test concerns the target T8, Streptokinase A (Streptococcus pyogenes serotype M1, UniProt P10520).
T8 sequence (P10520 whole entry): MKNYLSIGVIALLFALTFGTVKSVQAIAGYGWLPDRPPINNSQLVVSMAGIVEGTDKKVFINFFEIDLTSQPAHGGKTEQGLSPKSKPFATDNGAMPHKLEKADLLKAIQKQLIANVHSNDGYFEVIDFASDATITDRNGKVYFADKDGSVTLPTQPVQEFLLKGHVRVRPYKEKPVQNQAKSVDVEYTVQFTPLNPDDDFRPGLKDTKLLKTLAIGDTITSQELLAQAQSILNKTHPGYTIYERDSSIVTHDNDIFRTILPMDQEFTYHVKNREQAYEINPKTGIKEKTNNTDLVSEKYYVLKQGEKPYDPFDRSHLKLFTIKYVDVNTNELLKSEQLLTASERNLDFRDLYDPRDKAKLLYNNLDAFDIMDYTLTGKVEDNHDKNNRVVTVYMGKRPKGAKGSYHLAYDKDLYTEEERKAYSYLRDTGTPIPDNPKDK
Nature of the test: viability-normalized secreted streptokinase activity reduction – plasminogen activation absorbance, OD405, dose response (AID 1914).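 Note: secreted streptokinase activity via plasminogen activation per viability signal from cell pellet.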 It is filed as functional, Streptococcus pyogenes M1 GAS.

Another test has as its system Streptococcus. The experiment in a line: GAS UMAA2166 growth inhibition – luminescence, BacTiterGlo, counter-screen for streptokinase expression inhibitor project, dose response (AID 1915).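 Note: potency for reduction of bacterial viability or growth.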 The format is functional, organism-based.
A short description of test [10]: viability of uninfected HEp-2 cells – cell-based, HTS, cytotoxicity control for RSV inhibitor project, dose response (AID 2410). The format is functional. As to conditions: human respiratory syncytial virus.

Active and inactive are the calls of the source.

The text below walks through data of ChEMBL document CHEMBL1201862, “PubChem BioAssay data set” (2004).
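Throughout, for Absolute IC50 (XBP1): confirmatory dose-response counter-screen serving a CHOP assay.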

As to `C/C(N)=C(/C#N)C(=O)CSc1cc(C)c2cc(C)cc(C)c2n1`, the values for the EC50 in test [1] and in test [2] were 4.13 µM (active) and > 60 µM (not active), respectively. In addition, in the test “cells”, the IC50 (usually the point on the concentration scale where inhibition reaches its midpoint) was 12 µM (active).
Regarding `O=C(CSc1nnc(-c2cccnc2)n1Cc1ccco1)c1ccc2ccccc2c1`, in test [3], the EC50 (as a rule, the concentration at which the effect is half-maximal) was > 50 µM (active).
For the compound `O=C(CSc1nccc(O)n1)Nc1ccc(Br)c(Cl)c1`, the IC50 is > 73.5 µM (not active) against Aspartyl aminopeptidase, > 59.6 µM (not active) against Procathepsin L and 2.5 µM (active) at Leucine aminopeptidase.
The matching figures for `CC1=C(C)CC(C(=O)Nc2cccc([N+](=O)[O-])c2)C(C(=O)O)C1` (configuration not stated): > 73.5 µM (not active), > 59.6 µM (not active) and 6.42 µM (active).
`Cc1cc(N=Nc2ccccc2)c(NCC(O)C(O)C(O)CO)cc1C` (configuration not stated): the EC50 in test [3] was > 50 µM (active).
With `COc1ccccc1N1CCN(/N=C/c2ccc(O)c(O)c2)CC1`, the IC50 was > 50 µM (not active) in [4] and 15 µM (active) on Large T antigen.
Consider `N#Cc1nc(-c2ccc(OCc3ccc(Cl)cc3)cc2)oc1NCc1cccnc1`, for which the IC50 against Estrogen receptor was 37.4 µM (not active).
For `Cc1cc(NC(=O)/C=C/c2cccs2)no1`, the IC50 is 62.6 µM (active) in [5], > 100 µM (inactive) in [6], > 100 µM (inactive) in test [7] and > 100 µM (not active) in [8].
Regarding `C=CCn1c(COc2ccccc2)nnc1SC(C)C(=O)N/N=C/c1cc(Cl)ccc1O` (configuration not stated), the “Absolute IC50 (XBP1)” value on X-box-binding protein 1 turned out to be 10 µM. For the same compound, the values for the EC50 (in test [9]; on Streptokinase A; in the test on Streptococcus) were 2.77 µM (active), > 150 µM (not active) and 8.01 µM (active), respectively.
As to `Cc1ccc(/C=C2\SC(=S)N(c3cccnc3)C2=O)o1`, the EC50 is 2.36 µM (active) in [1], > 50 µM (active) in test [3] and > 60 µM (not active) in test [2].
For `COc1ccc(Cl)cc1NC(=O)c1oc(C)nc1C`, the IC50 against Estrogen receptor is given as > 50 µM (not active).
In the case of `CC(=O)c1ccc2c(c1)C1C=CCC1C(c1ccc(S(=O)(=O)N3CCOCC3)cc1)N2` (configuration not stated), in [10], the CC50 (usually the concentration that lowers cell viability or growth by half) was 17.2 µM (active). The IC50 in the test “cells” was 22.5 µM (active).
With `Cn1c(=O)c([N+](=O)[O-])c(Oc2ccccc2)c2ccccc21`, the IC50 in test [4] is given as > 50 µM (not active).
As for `Cc1ccc(-n2c(C)cc(C(=O)COC(=O)c3ccc[nH]c3=O)c2C)cc1C`, the IC50 was > 73.5 µM (not active) against Aspartyl aminopeptidase, > 59.6 µM (not active) on Procathepsin L and 1.45 µM (active) on Leucine aminopeptidase.
